Measurements as given in US10792360B1, “Compositions and methods for treating inflammatory bowel disease using CCR9 inhibitor and anti-TNF-alpha blocking antibodies” (ChemoCentryx, Inc., priority 2019, dated 2020).

Test: Compound 1 plasma concentration at trough (LC-MS) in piroxicam-accelerated MDR1a−/− colitis mice
Type: in vivo, mouse
Conditions: 90 mg/kg SC BID in 10% Cremophor-EL; trough blood after 3rd and 21st day of dosing; FIG. 1
Method: Compound 1 was dosed at 90 mg/kg in 10% Cremophor-EL, SC, BID. Vehicle was 10% Cremophor-EL and was administered SC, BID. Anti-mouse TNFα clone XT3.11 (Rat IgG1), 300 μg/mouse, QD/QOD; Isotype-matched control Clone HRPN (Rat IgG1), 300 μg/mouse, QD/QOD.
Blood was taken at trough from all Compound 1-dosed mice, and plasma analyzed by Liquid Chromatography-Mass Spectroscopy to determine Compound 1 concentration. Trough blood was taken after the 3rd day (left panel) and 21st day (right panel) of dosing (FIG. 1).

CC(C)(C)c1ccc(S(=O)(=O)Nc2ccc(Cl)cc2C(=O)c2cc[n+]([O-])cc2)cc1 [Compound 1]
Compound 1 plasma concentration at trough: met or exceeded the minimal concentration established for 98% receptor coverage
